Assay results: patent US10160738B2, “Neuroactive substituted cyclopent[a]anthracenes as modulators for GABA type-A receptors” (priority 2013, dated 2018)
Read-outs that look alike come from different tables or passages of the source.

Columns and labels:
[1] = target: picrotoxin binding site on GABAA receptors; experiment: [35S]-TBPS displacement (inhibition of [35S]-TBPS binding); details: non-competitive displacement; duplicate experiments in triplicate; ± SEM
Experimental: The IC50 values for non-competitive displacers of [^35S]-TBPS from the picrotoxin binding site on GABAA receptors are reported in Table 1.
Results presented are from duplicate experiments performed in triplicate. Error limits are calculated as standard error of the mean. Methods used are known in the art (see Jiang, X., et al., Neurosteroid analogues. 9. Conformationally constrained pregnanes: structure-activity studies of 13,24-cyclo-18,21-dinorcholane analogues of the GABA modulatory and anesthetic steroids (3α,5α)- and […]. J. Med. Chem., 46: 5334-48 (2003)—the contents of which are hereby incorporated by reference in their entirety).

[2] = target: T1, rat α1β2γ2L type GABAA receptors expressed in Xenopus laevis oocytes (Rattus norvegicus, UniProt P18508+P62813+P63138, INS375LLRMFSFK); experiment: Potentiation of GABA-mediated chloride currents, oocyte electrophysiology; assay type: cell-based; details: ± SEM; for Oocyte electrophysiology (gating) 10 μM: direct current gated by 10 μM compound in absence of GABA, ratio compound only current/2 μM GABA current; for Oocyte electrophysiology 0.1 μM: ratio of currents in presence/absence of 0.1 μM compound; for Oocyte electrophysiology 0.1 μM / Oocyte electrophysiology 1.0 μM / Oocyte electrophysiology 10 μM: 2 μM GABA, N≥4; for Oocyte electrophysiology 1.0 μM: ratio of currents in presence/absence of 1.0 μM compound; for Oocyte electrophysiology 10 μM: ratio of currents in presence/absence of 10 μM compound
T1 construct: expressed in transfected cells; host or cells: Xenopus laevis oocytes
T1 sequence (P62813 28-455, stated change not applied): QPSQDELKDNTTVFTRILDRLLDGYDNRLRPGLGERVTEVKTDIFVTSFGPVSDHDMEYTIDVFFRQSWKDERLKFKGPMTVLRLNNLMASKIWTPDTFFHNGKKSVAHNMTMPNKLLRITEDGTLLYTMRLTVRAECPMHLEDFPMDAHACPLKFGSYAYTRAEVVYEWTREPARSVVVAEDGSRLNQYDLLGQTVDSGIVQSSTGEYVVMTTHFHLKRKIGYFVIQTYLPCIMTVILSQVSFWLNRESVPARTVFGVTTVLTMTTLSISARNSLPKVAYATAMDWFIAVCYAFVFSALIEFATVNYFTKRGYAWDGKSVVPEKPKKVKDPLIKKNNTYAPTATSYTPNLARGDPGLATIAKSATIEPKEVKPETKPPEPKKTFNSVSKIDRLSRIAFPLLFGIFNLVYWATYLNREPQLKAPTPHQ
T1 sequence (P63138 26-474, stated change not applied): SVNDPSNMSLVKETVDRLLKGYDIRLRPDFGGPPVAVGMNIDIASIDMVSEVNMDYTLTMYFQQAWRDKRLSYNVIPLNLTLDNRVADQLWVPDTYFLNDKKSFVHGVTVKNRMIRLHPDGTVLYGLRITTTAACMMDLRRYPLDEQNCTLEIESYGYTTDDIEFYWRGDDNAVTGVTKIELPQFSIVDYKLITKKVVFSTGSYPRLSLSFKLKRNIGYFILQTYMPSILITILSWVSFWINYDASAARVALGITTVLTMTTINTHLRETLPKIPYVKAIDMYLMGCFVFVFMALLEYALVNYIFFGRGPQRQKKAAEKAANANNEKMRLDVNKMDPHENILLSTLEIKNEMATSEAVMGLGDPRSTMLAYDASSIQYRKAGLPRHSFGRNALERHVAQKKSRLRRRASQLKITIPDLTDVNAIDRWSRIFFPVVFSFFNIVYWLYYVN
T1 sequence (P18508 with tags, fused parts or gaps INS375LLRMFSFK): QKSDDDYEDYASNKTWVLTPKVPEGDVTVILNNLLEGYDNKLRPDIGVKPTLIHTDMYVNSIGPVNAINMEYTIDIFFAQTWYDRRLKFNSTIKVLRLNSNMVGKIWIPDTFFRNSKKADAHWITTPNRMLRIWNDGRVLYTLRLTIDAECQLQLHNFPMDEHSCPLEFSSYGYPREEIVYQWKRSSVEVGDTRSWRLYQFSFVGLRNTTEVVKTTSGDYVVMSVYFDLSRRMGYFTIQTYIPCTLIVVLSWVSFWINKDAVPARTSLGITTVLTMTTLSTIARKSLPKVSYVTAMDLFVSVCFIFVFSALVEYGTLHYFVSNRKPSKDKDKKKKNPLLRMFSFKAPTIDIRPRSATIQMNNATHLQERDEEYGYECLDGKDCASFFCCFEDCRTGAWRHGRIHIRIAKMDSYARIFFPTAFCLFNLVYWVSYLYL
Experimental: The compounds of the present disclosure were evaluated for the ability to potentiate chloride currents mediated by 2 μM GABA at rat α1β2γ2L type GABAA receptors expressed in Xenopus laevis oocytes and the results are shown in Table 2.
The GABA concentration used for the control response was 2 μM. Each compound was evaluated on at least four different oocytes at the concentrations indicated, and the results reported are the ratio of currents measured in the presence/absence of added compound. Gating represents direct current gated by 10 μM compound in the absence of GABA, and this current is reported as the ratio of compound only current/2 μM GABA current. Error limits are calculated as standard error of the mean (N≥4). Methods used are known in the art (see Jiang, X., et al.).

tadpole = experiment: Tadpole loss of righting reflex (LRR) and loss of swimming reflex (LSR); assay type: in vivo; details: ± SEM
Experimental: Table 3 discloses the anesthetic effects of the compounds of the present disclosure. In particular, the anesthetic effect of the compounds of the present disclosure on Loss of Righting Reflex (LRR) and Loss of Swimming Reflex (LSR).
Methods used are known in the art (see Jiang, X., et al.). Error limits are calculated as standard error of the mean (N=10 or more animals at each of five or more different concentrations).

[3] = loss of righting reflex, read-out: Tadpole LRR EC50
[4] = loss of swimming reflex, read-out: Tadpole LSR EC50

Structure (SMILES)	IC50 [1]	Oocyte electrophysiology (gating) 10 μM [2]	Oocyte electrophysiology 0.1 μM [2]	Oocyte electrophysiology 1.0 μM [2]	Oocyte electrophysiology 10 μM [2]	EC50 (tadpole; [3])	Tadpole LSR EC50 (tadpole; loss of swimming reflex)	melting point	EC50 (tadpole; [4])
C[C@@]12CC[C@H]3C[C@H]4C[C@H](O)CC[C@@H]4C[C@@H]3[C@H]1CCC2=O [MQ-64, (3aR,5aS,6aS,8R,10aR,11aS,11bR)-Hexadecahydro-8-hydroxy-3a-methyl-3H-cyclopent[a]anthracen-3-one]	0.346 ± 0.033 µM	0.04 ± 0.03	0.98 ± 0.02	2.21 ± 0.17	8.81 ± 1.87	3.08 ± 0.01 µM	None	152 to 154 °C	–
C[C@@]12CC[C@H]3C[C@H]4C[C@H](O)CC[C@@H]4C[C@@H]3[C@H]1CC[C@]21CO1 [MQ-65, (2′R,3R,3aR,5aS,6aS,8R,10aR,11aS,11bR)-Hexadecahydro-3a-methyl-spiro[3H-cyclopent[a]anthracene-3,2′-oxiran]-8-ol]	0.251 ± 0.066 µM	0.02 ± 0.0	1.27 ± 0.04	2.94 ± 0.28	6.86 ± 1.34	2.09 ± 0.12 µM	–	143 to 145 °C	5.48 ± 0.02 µM
C[C@]12CC[C@@H]3C[C@@H]4C[C@@H](O)CC[C@H]4C[C@H]3[C@@H]1CCC2=O [MQ-74, (3aS,5aR,6aR,8S,10aS,11aR,11bS)-Hexadecahydro-8-hydroxy-3a-methyl-cyclopent[a]anthracen-3-one]	1.19 µM	−0.01 ± 0.04	0.80 ± 0.06	1.00 ± 0.0	3.88 ± 0.56	3.22 ± 0.03 µM	–	152 to 154 °C	> 10 µM
C[C@]12CC[C@@H]3C[C@@H]4C[C@@H](O)CC[C@H]4C[C@H]3[C@@H]1CC[C@@]21CO1 [MQ-75, (2′S,3S,3aS,5aR,6aR,8S,10aS,11aR,11bS)-Hexadecahydro-3a-methyl-spiro[3H-cyclopent[a]anthracene-3,2′-oxiran]-8-ol]	0.226 ± 0.002 µM	0.13 ± 0.04	1.36 ± 0.03	7.67 ± 0.71	18.86 ± 1.99	0.26 ± 0.04 µM	–	140 to 142 °C	0.95 µM
C[C@]12CC[C@@H]3C[C@@H]4C[C@@H](O)CC[C@H]4C[C@H]3[C@@H]1CC=C2C#N [MQ-76, (3aS,5aR,6aR,8S,10aS,11aR,11bS)-8-Hydroxy-3a-methyl-3a,4,5,5a,6,6a,7,8,9,10,10a,11,11a,11b-Tetradecahydro-1H-cyclopent[a]anthracene-3-carbonitrile]	0.574 ± 0.142 µM	0.31 ± 0.30	0.95 ± 0.20	2.08 ± 0.16	9.43 ± 0.77	0.39 ± 0.01 µM	–	164 to 166 °C	1.73 ± 0.03 µM
C[C@]12CC[C@@H]3C[C@@H]4C[C@@H](O)CC[C@H]4C[C@H]3[C@@H]1CC[C@@H]2C#N [MQ-77, (3S,3aS,5aR,6aR,8S,10aS,11aR,11bS)-Hexadecahydro-8-hydroxy-3a-methyl-cyclopent[a]anthracene-3-carbonitrile]	0.4 ± 0.118 µM	0.02 ± 0.09	1.03 ± 0.10	3.65 ± 0.39	14.80 ± 1.53	0.59 ± 0.07 µM	–	–	1.73 ± 0.04 µM
C[C@@]12CC[C@H]3C[C@H]4C[C@H](O)CC[C@@H]4C[C@@H]3[C@H]1CC=C2C#N [MQ-81, (3aR,5aS,6aS,8R,10aR,11aS,11bR)-8-Hydroxy-3a-methyl-3a,4,5,5a,6,6a,7,8,9,10,10a,11,11a,11b-Tetradecahydro-1H-cyclopent[a]anthracene-3-carbonitrile]	0.174 ± 0.014 µM	0.09 ± 0.01	1.37 ± 0.14	5.69 ± 0.17	18.39 ± 0.70	0.77 ± 0.04 µM	–	165 to 167 °C	1.73 ± 0.04 µM
C[C@@]12CC[C@H]3C[C@H]4C[C@H](O)CC[C@@H]4C[C@@H]3[C@H]1CC(=O)C2 [MQ-82, (3aS,5aS,6aS,8R,10aR,11aS,11bR)-8-Hydroxy-3a-methyl-hexadecahydro-2H-cyclopenta[a]anthracen-2-one]	2.68 µM	0.19 ± 0.17	0.80 ± 0.04	0.83 ± 0.06	2.43 ± 0.34	3.11 ± 0.01 µM	–	145 to 147 °C	7.93 µM
